For this test, the target named is T1, Endoribonuclease toxin MazF (Escherichia coli (strain K12), UniProt P0AE70).
T1 sequence (P0AE70 whole entry): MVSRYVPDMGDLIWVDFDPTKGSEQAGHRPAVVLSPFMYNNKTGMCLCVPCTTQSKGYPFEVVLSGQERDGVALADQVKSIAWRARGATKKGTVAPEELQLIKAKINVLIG
In words: substrate-only fluorescence increase artefacts – biochemical, single-stranded RNase substrate, counter-screen for MazEF activator project, dose response (AID 588502). (In general: A counterscreen serves to expose hits that act by an unwanted route or on another target.)

As to `CCC(N=Nc1cccc(C)c1)c1cnnc(SC)n1` (stereo not given) [MLS000705906], the EC50 (in general, the concentration that produces a half-maximal response) is more than 99 µM.

Consider `C=c1[nH]n(-c2ccccc2)c(=O)c1=Cc1cc(C)n(C2CC2)c1C` [MLS001018445], for which the EC50 is more than 99 µM.

In turn, `CCSc1nnc(N2C(=O)C(=O)C(C(=O)c3ccco3)C2c2cccc(OC)c2)s1` (stereo not given) [MLS001140620] had an EC50 of more than 99 µM.

Consider `O=[N+]([O-])c1cc/c(=N\c2ccccc2O)c2no[nH]c1-2` [MLS001206694], for which the concentration giving a half-maximal response (EC50) is more than 99 µM.

In turn, `Oc1ccc2ccccc2c1C=Nn1c(O)csc1=S` [MLS002707175] had an EC50 of more than 99 µM.

As to `O=[N+]([O-])c1ccc(N=NCc2ccc3c(c2)OCO3)nc1` [N-(1,3-benzodioxol-5-ylmethylideneamino)-5-nitro-pyridin-2-amine], the EC50 is more than 99 µM.

`O=[N+]([O-])c1ccc(N=NCc2cccc3ccccc23)nc1` [N-(naphthalen-1-ylmethylideneamino)-5-nitro-pyridin-2-amine] displayed an EC50 of 45.4 µM. This counts as double-digit micromolar.

Take `CCN(CC)c1ccc(CN=Nc2ccc([N+](=O)[O-])cn2)cc1` [N-[[4-(diethylamino)phenyl]methylideneamino]-5-nitro-pyridin-2-amine]: the EC50 stood at 70.2 µM.

On to `Cc1ccc(C2=Nc3nnnn3C(c3ccc(N(C)C)cc3)C2)cc1` (stereo not given) [SMR000092467], for which the EC50 is more than 99 µM.

Turning to `COc1ccc(C=C2CCCC(C(=O)C(F)(F)F)C2=O)cc1` (stereo not given) [SMR000142699], a half-maximal effect (EC50) was put at 33.8 µM.

For the compound `Cc1[nH]c2ccccc2c1/C=C1\N=C(c2ccc(C(F)(F)F)cc2)OC1=O` [SMR000152363], the EC50 is more than 99 µM.

For `O=C(c1ccc2ccccc2n1)c1[nH][nH]c2c(O)n(-c3cccc(C(F)(F)F)c3)c(=O)c1-2` [SMR000212847], the EC50 was more than 99 µM.

`Cc1ccc(S(=O)(=O)N[N-][C+]2CCC(C(C)(C)C)CC2)cc1[N+](=O)[O-]` [SMR000241764]: the EC50 was more than 99 µM.

On to `COc1ccc(N=CCC(=O)c2ccc(C)cc2)cc1OC` [SMR000269732], for which the EC50 was determined as 25 µM. This counts as double-digit micromolar.

`COc1cc(C2c3c(-c4cccs4)n[nH]c3OC(=N)C2C#N)cc(OC)c1O` (stereo not given) [SMR000275523]: a half-maximal response (EC50) required 13.3 µM. Against the preceding compound, the EC50 is about 1.9-fold lower.

Regarding `CC1(C)CC(=O)C(N=Nc2cc3c(cc2[N+](=O)[O-])OCCO3)C(=O)C1` [SMR000348183], the EC50 was 29.6 µM.

`O=C1N=c2ccc(Br)cc2=C1NNc1ccc(F)cc1` [SMR000564049] yielded an EC50 of 45.8 µM.

`CSc1nnc(N2C(=O)C(=O)C(C(=O)c3ccc(C)o3)C2c2ccc(C)cc2)s1` (stereo not given) [SMR000650392] yielded a half-maximal effective concentration (EC50) of more than 99 µM.

For `CCN1C(=O)C(C=NN=Cc2ccccc2)c2ccc(C3=NNC(=O)CC3)cc21` (stereo not given) [benzaldehyde {[1-ethyl-2-oxo-6-(6-oxo-1,4,5,6-tetrahydro-3-pyridazinyl)-1,2-dihydro-3H-indol-3-ylidene]methyl}hydrazone], the EC50 was more than 99 µM.

Take `CCOC(=O)c1c(NC=C2C(=O)NC(=O)NC2=O)sc2c1CCC2` [ethyl 2-{[(1E)-(2,4,6-trioxohexahydropyrimidin-5-yl)methylene]amino}-5,6-dihydro-4H-cyclopenta[b]thiophene-3-carboxylate]: the half-maximal effective concentration (EC50) is more than 99 µM.
